Key:
[1] = system: VZV YS; assay: Anti-viral activity: VZV-induced plaque formation in HEL cell cultures, YS strain; type: cell-based, varicella zoster virus (VZV); conditions: Human alphaherpesvirus 3, VZV-induced plaque formation in human embryonic lung HEL cell cultures, 50%
[2] = system: CMV AD-169 strain; assay: Anti-CMV activity: plaque reduction in HEL cells, AD-169 strain; type: cell-based, human cytomegalovirus (CMV); conditions: Human betaherpesvirus 5, AD169, HEL; Table 6; reduce virus plaque formation by 50%; virus input 100 PFU; read-out: Anti-CMV activity IC50 AD-169 strain
[3] = system: VV; assay: microbe, parasite or virus in culture; type: cell-based; conditions: Orthopoxvirus vaccinia, E6SM, read-out: EC50 VV (E6SM)
[4] = system: murine leukemia cells (L1210/0); assay: Cytostatic activity: inhibition of proliferation of L1210/0 cells; type: cell-based; conditions: Mus musculus, L1210/0; 50% inhibitory concentration, cell proliferation; read-out: IC50 L1210/0
Procedure: (§1) The compounds were tested for anti-tumor activity via the inhibitory effects on the proliferation of murine leukemia cells (L1210/0), murine mammary carcinoma cells (FM3A), human T-lymphocyte cells (Molt4/C8, CEM/0) and human cervix carcinoma cells (HeLa).

[5] = system: human cervix carcinoma cells (HeLa); assay: Cytostatic activity: inhibition of proliferation of HeLa cells; type: cell-based; conditions: 50% inhibitory concentration, cell proliferation
Procedure: as §1

[6] = system: CMV Davis strain; assay: Anti-CMV activity: plaque reduction in HEL cells, Davis strain; type: cell-based, human cytomegalovirus (CMV); conditions: Human betaherpesvirus 5, HEL; Table 6; reduce virus plaque formation by 50%; virus input 100 PFU; read-out: Anti-CMV activity IC50 Davis strain
[7] = system: HSV-1 (KOS); assay: Anti-viral activity: HSV-1-induced cytopathicity in human embryo fibroblast E6SM cell cultures; type: cell-based, herpes simplex virus (HSV); conditions: Human alphaherpesvirus 1, 50%
[8] = system: HSV-2 (G); assay: Anti-viral activity: HSV-2-induced cytopathicity in human embryo fibroblast E6SM cell cultures; type: cell-based, herpes simplex virus (HSV); conditions: Human alphaherpesvirus 2, 50%
[9] = system: human T-lymphocyte cells (CEM/0); assay: Cytostatic activity: inhibition of proliferation of CEM/0 cells; type: cell-based; conditions: CCRF-CEM, 50% inhibitory concentration, cell proliferation, read-out: IC50 CEM/0
Procedure: as §1

[10] = system: murine mammary carcinoma cells (FM3A); assay: Cytostatic activity: inhibition of proliferation of FM3A cells; type: cell-based; conditions: Mus musculus, 50% inhibitory concentration, cell proliferation, read-out: IC50 FM3A/0
Procedure: as §1

[11] = system: HEL cells; assay: Cytotoxicity: alteration of cell morphology (MCC); type: cell-based, human; conditions: minimum cytotoxic concentration that causes a microscopically detectable alteration of cell morphology
[12] = Cytotoxicity: inhibition of HEL cell growth (CC50); type: cell-based; conditions: human; concentration required to reduce cell growth by 50%; HEL cells, three days
Procedure: The medium was then replaced by MEM containing various concentrations of the test compound. After three days incubation at 37° C., when the cell monolayer was 70% confluent, the cell number was determined with the Coulter counter. The minimum cytotoxic concentration was defined as the concentration required to reduce cell growth by 50%.

[13] = system: human T-lymphocyte cells (Molt4/C8); assay: Cytostatic activity: inhibition of proliferation of Molt4/C8 cells; type: cell-based; conditions: Molt4/C8, 50% inhibitory concentration, cell proliferation, read-out: IC50 Molt4/C8
Procedure: as §1

[14] = system: VZV OKA; assay: microbe, parasite or virus in culture; type: cell-based, varicella zoster virus (VZV); conditions: Human alphaherpesvirus 3, HEL, read-out: EC50 VZV (HEL) OKA

**Q.** For `CCO[C@@H]1[C@@H](OCC)[C@H](Sc2ccccc2)O[C@@H]2CO[C@@H](c3ccccc3)O[C@@H]12` [KPE00001050], which EC50 [1] is on record?
**A.** > 5 µg/mL

**Q.** What about the IC50 [2] of the same compound?
**A.** > 50 µg/mL

**Q.** And the EC50 [3]?
**A.** > 3.2 µg/mL

**Q.** And the IC50 [4]?
**A.** > 200 µg/mL

**Q.** And the IC50 [5]?
**A.** > 200 µg/mL

**Q.** And the IC50 [6]?
**A.** > 50 µg/mL

**Q.** What about the EC50 [7] of the same compound?
**A.** > 3.2 µg/mL

**Q.** And the EC50 [8]?
**A.** > 3.2 µg/mL

**Q.** What about the IC50 [9] of the same compound?
**A.** > 200 µg/mL

**Q.** What about the IC50 [10] of the same compound?
**A.** > 200 µg/mL

**Q.** And the “Cytotoxicity Cell morphology (MCC)” value [11]?
**A.** >50 μg/ml

**Q.** What about the CC50 at 3 days [12] of the same compound?
**A.** > 50 µg/mL

**Q.** And the IC50 [13]?
**A.** > 200 µg/mL

**Q.** And the EC50 [14]?
**A.** > 5 µg/mL

— patent publication US7534871B2, “Preparation and use of carbohydrate-based bicyclic ring structures with antimicrobial and cytostatic activity” (Kemin Pharma B.V.B.A., priority 2004, dated 2009)
